The text below walks through data of US20240182874A1, “NOVEL FAMILY OF DNA POLYMERASES ACCEPTING 2-AMINOADENINE AND REJECTING ADENINE IN THEIR SUBSTRATES” (THE EUROPEAN SYNDICATE OF SYNTHETIC SCIENTISTS AND …, priority 2021, published 2024).

What all share (assay): Single nucleotide extension assay, steady-state kinetics (Table 2)
The subject of series [1] is T1, Nc1nc(N)c2ncn([C@H]3C[C@H](O)[C@@H](COP(=O)(O)OP(=O)(O)OP(=O)(O)O)O3)c2n1.
T1 construct: 3'-exonuclease-disabled D74A
It is filed as biochemical, Acinetobacter phage SH-Ab 15497. Conditions: other: 37° C., pH7, 500 nM duplex X1648/X1649, average and standard deviation of three independent assays, pH 7.0. An excerpt:
(§1) DpoZ genes from each bacteriophage were also cloned in the P15A plasmid pVDM18 previously described (Pezo et al., Sci Rep. 3, 1359 (2013)). Exonuclease mutants were constructed by site directed mutagenesis of pVDM18 Pol constructs using X1379/X1380 oligonucleotides for Vibrio phage PhiVC8 DNA pol (D85A mutation), X1865/X1866 for Arthrobacter phage Wayne DNA pol (D146A mutation), X1990/X1991 for Acinetobacter phage SH-Ab-15497 (D74A mutation), X1867/X1868 for Gordonia phage Ghobes DNA pol (D109A mutation) and X1601/X1602 for Klenow fragment of E. coli DNA pol I (D101A mutation). Mutations were verified by full sequencing of the constructs. These mutants were also sub-cloned into the pGEN452 vector downstream a His6-tag for protein expression
(§2) Kinetic parameters were determined in a single nucleotide extension assay using DNA polymerase mutants devoid of 3′exonuclease activity, followed by denaturing polyacrylamide gel electrophoresis of the extended products essentially as described (O'Flaherty and Guengerich, Current Protocols in Nucleic Acid Chemistry. 59 (2014)). The fluorescent oligonucleotide X1648 was annealed to X1649 template. Duplex substrates were used at 500 nM concentration in reaction buffer (20 mM TrisHCl pH7, 200 mM NaCl, 2 mM DTT, 5 mM MgCl2), with different enzymes concentrations and various dNTPs concentrations. Reactions were performed at 37° C. for variable times in conditions to remain in the confines of the steady-state kinetic model e.g. remaining below 20% of product formation (Creighton et al., Methods in Enzymology (Elsevier, 1995; https://linkinghub.elsevier.com/retrieve/pii/0076687995620214), vol. 262, pp. 232-256).
(§3) • The Km affinity constant and the kcat turnover number of 3′-exonuclease-disabled and His-tagged versions of DpoZ polymerases from Vibrio phage PhiVC8 and Acinetobacter phage SH-Ab 15497 are shown in comparison with PolA polymerase (Klenow fragment) from E. coli. The average and standard deviation of three independent assays carried out under the same conditions are given for each experiment.

Series [2] has as its system T2, Nc1ncnc2c1ncn2[C@H]1C[C@H](O)[C@@H](COP(=O)(O)OP(=O)(O)OP(=O)(O)O)O1.
T2 construct: 3'-exonuclease-disabled D74A
It is filed as biochemical, Acinetobacter phage SH-Ab 15497. Particulars: other: 37° C., pH7, 500 nM duplex X1648/X1649, average and standard deviation of three independent assays, pH 7.0.
From the text: as §1, §2, §3

Series [3] has as its system T3, Nc1nc(N)c2ncn([C@H]3C[C@H](O)[C@@H](COP(=O)(O)OP(=O)(O)OP(=O)(O)O)O3)c2n1.
T3 construct: 3'-exonuclease-disabled D85A
It is filed as biochemical, Vibrio phage PhiVC8. Conditions: other: 37° C., pH7, 500 nM duplex X1648/X1649, average and standard deviation of three independent assays, pH 7.0.
From the text: as §1, §2, §3

Series [4] relates to T4, Nc1ncnc2c1ncn2[C@H]1C[C@H](O)[C@@H](COP(=O)(O)OP(=O)(O)OP(=O)(O)O)O1.
T4 construct: 3'-exonuclease-disabled D85A
Type of series: biochemical, Vibrio phage PhiVC8. Particulars: other: 37° C., pH7, 500 nM duplex X1648/X1649, average and standard deviation of three independent assays, pH 7.0.
From the text: as §1, §2, §3

Series [5] has as its target T5, Acinetobacter phage SH-Ab 15497 DpoZ DNA polymerase (SEQ ID NO: 113), His-tagged, 3′-exonuclease-disabled mutant D74A (Acinetobacter phage SH-Ab 15497, UniProt A0A2H5BHJ5, D74A).
T5 construct: 3'-exonuclease-disabled D74A
T5 sequence (A0A2H5BHJ5 1-624 D74A): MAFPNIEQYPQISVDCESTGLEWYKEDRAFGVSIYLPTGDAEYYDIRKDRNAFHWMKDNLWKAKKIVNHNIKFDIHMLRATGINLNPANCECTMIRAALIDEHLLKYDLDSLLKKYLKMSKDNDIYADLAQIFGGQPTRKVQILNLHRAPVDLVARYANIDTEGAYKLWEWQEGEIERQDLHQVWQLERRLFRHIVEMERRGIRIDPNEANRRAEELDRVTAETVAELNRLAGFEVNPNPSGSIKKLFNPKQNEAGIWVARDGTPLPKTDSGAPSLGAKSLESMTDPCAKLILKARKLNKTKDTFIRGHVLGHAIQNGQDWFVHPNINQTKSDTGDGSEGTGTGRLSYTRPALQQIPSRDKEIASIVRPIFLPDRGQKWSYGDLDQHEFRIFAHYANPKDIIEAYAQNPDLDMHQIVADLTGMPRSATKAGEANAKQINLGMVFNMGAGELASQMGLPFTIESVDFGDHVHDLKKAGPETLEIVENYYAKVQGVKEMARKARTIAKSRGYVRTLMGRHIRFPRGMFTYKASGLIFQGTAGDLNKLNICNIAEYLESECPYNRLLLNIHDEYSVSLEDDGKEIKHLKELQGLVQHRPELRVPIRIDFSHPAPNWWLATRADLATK
Type of series: biochemical. Conditions: for Efficiency: catalytic efficiency, average and standard deviation of three independent assays.
From the text: as §1, §2, §3

Series [6] concerns the target T6, E. coli PolA polymerase (Klenow fragment of E. coli DNA pol I, SEQ ID NO: 234), His-tagged, 3′-exonuclease-disabled mutant D101A (Escherichia coli, UniProt P00582, D424A).
T6 construct: 3'-exonuclease-disabled
Type of series: biochemical. Particulars: for Efficiency: catalytic efficiency, average and standard deviation of three independent assays.
From the text: as §1, §2, §3

Series [7] concerns the target T7, Vibrio phage PhiVC8 DpoZ DNA polymerase (SEQ ID NO: 112), His-tagged, 3′-exonuclease-disabled mutant D85A (Vibrio phage phiVC8, UniProt G3FFN8, D85A).
T7 construct: 3'-exonuclease-disabled D85A
T7 sequence (G3FFN8 1-633 D85A): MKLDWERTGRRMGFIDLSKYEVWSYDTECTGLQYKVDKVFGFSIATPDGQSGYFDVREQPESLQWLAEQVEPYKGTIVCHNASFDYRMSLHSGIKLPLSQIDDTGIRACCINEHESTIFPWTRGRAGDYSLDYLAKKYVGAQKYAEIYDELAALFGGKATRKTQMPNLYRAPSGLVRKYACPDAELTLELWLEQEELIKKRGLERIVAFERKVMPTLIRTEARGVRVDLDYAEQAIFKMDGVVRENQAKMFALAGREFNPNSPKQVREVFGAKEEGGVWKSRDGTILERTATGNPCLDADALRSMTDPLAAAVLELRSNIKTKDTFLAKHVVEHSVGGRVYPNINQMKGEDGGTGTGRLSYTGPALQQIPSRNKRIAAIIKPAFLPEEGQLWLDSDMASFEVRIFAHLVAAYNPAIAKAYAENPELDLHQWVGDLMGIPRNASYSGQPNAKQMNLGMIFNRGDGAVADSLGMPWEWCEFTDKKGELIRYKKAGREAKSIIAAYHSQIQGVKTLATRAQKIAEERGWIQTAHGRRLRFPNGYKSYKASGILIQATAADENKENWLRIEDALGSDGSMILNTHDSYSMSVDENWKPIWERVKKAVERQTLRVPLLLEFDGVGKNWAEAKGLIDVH
Type of series: biochemical. Conditions: for Efficiency: catalytic efficiency, average and standard deviation of three independent assays.
From the text: as §1, §2, §3

T6 sequence (P00582 with tags, fused parts or gaps D424A): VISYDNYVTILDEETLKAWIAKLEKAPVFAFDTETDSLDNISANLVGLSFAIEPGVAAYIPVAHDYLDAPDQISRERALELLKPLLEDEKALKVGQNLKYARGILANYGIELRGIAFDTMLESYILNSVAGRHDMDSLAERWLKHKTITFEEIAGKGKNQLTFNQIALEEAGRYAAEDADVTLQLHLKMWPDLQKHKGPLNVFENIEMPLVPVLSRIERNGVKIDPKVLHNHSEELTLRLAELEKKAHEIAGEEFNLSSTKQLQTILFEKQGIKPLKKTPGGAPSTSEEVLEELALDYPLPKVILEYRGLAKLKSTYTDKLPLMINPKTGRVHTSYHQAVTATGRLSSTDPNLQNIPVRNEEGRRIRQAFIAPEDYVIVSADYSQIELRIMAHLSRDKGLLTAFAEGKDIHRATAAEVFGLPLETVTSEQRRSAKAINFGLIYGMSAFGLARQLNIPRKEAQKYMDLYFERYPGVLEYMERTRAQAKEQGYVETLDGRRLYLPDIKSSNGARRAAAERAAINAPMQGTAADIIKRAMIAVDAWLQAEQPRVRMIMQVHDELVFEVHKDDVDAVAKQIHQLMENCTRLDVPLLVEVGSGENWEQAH

In general, Km refers to the substrate concentration at which the rate is half of its maximum. By kcat is commonly meant the number of substrate molecules converted per active site and unit of time at saturation. Turning to “Acinetobacter phage SH-Ab 15497 DpoZ DNA polymerase (SEQ ID NO: 113), His-tagged, 3′-exonuclease-disabled mutant D74A (Acinetobacter phage SH-Ab 15497; D74A)”, the Michaelis constant (Km) in series [1] was 1.30 ± 0.36 mM; in series [2], 21.40 ± 3.40 mM. Also, the kcat amounted to 0.29 ± 0.07 s⁻¹ in series [1] and 0.16 ± 0.01 s⁻¹ in series [2].
As for “Vibrio phage PhiVC8 DpoZ DNA polymerase (SEQ ID NO: 112), His-tagged, 3′-exonuclease-disabled mutant D85A (Vibrio phage phiVC8; D85A)”, in series [3], the Km is given as 0.10 ± 0.02 mM and the turnover number (kcat) worked out at 0.42 ± 0.14 s⁻¹. In series [4], the Km came to 4.50 ± 1.38 mM and the kcat was found to be 0.21 ± 0.05 s⁻¹.
As for `Nc1ncnc2c1ncn2[C@H]1C[C@H](O)[C@@H](COP(=O)(O)OP(=O)(O)OP(=O)(O)O)O1` [dATP, deoxyadenosine 5′-triphosphate], the Efficiency in series [5] was 0.008 ± 0.001 mM⁻¹ s⁻¹; in series [6] it was 30.40 ± 5.82 mM⁻¹ s⁻¹; in series [7] it was 0.048 ± 0.017 mM⁻¹ s⁻¹.
Take `Nc1nc(N)c2ncn([C@H]3C[C@H](O)[C@@H](COP(=O)(O)OP(=O)(O)OP(=O)(O)O)O3)c2n1` [dZTP, 2-amino-2′-deoxyadenosine 5′-triphosphate]: the “factor in catalytic efficiency with dZTP relative to dATP” value in series [5] is given as 29 -fold; in series [6] it was 0.5 -fold; in series [7], 90 -fold. Also, the Efficiency in series [5] turned out to be 0.23 ± 0.06 mM⁻¹ s⁻¹; in series [6] it was 17.73 ± 4.96 mM⁻¹ s⁻¹; in series [7], 4.35 ± 1.56 mM⁻¹ s⁻¹. Besides, the entries for the “kcat^(Z)/kcat^(A)” value in series [5] (kcat dZTP / kcat dATP), in series [6] (kcat dZTP / kcat dATP) and in series [7] (kcat dZTP / kcat dATP) were 1.81, 0.68 and 2.00, respectively.
